Reference: US5384317A, “Bridged biphenyl carbapenem compounds, compositions containing such compounds and methods of use” (Merck & Co., Inc., priority 1993, dated 1995)
Values after ≈ are worked out from the molar mass of the structure shown.

Experiments:
MRSA strain MB #5180 [1] = assay: antibiotic disc-diffusion assay of MRSA activity, relative to imipenem; assay type: cell-based, methicillin resistant Staphylococcus aureus; conditions: multiples of the relative potency of imipenem
Experimental: In vitro antibacterial activity determined in accordance with the protocol set forth below is predictive of in vivo activity, when the compounds are administered to a mammal infected with a susceptible bacterial organism.
(§1) Minimum inhibitory concentrations for different compounds may be calculated using the procedures set forth in Lorian, V. (ed.) Antibiotics in Laboratory Medicine (3rd ed.) pages 30-35 if desired. However, by comparing disc sensitivities to a known compound, e.g., imipenem, this calculation is not required to recognize MRSA/MRCNS activity.
Assay Used to Test the Activities of Carbapenems Against Methicillin-Resistant Staphylococci: The assay is an antibiotic disc-diffusion assay modeled after the method described by Bauer and Kirby, et al.1, with the following modifications and clarifications:
Agar: This assay employs an agar depth of 2 mm instead of 4 mm.
Zone Readings: The inner, completely clear zone is measured.
Culture Storage: Frozen vials of strains are stored at -80° C. Working slants are prepared from frozen vials and are used for 1 month to 6 weeks. For methicillin-resistant strains the slant medium is Muleller Hinton Agar; for control strains the slant medium is Brain Heart Infusion Agar. After inoculation from frozen vials, methicillin-resistant slant cultures are incubated at 28° C. until good growth is achieved (approximately 20 hours); slants of control strains are incubated at 37° C. for 16-18 hours.
Preparation of Methicillin-Resistant Inocula for Assay: For methicillin-resistant strains, inoculate 0.5 ml of BHIB heavily (to achieve approximately 1×10^8-109 cfu/ml) from the slant culture by using a sterile cotton tipped applicator. […]
Methicillin-resistant Staphylococci: With a cotton tipped applicator, swab enough growth off the grown plates into 1 ml BHIB to achieve a visual concentration of approximately 1×10^9 cfu/ml. […] Add measured quantities of PBS to dilutions to achieve % T @ 1% above or below the % T measurement for the control cultures. […]

MRSA strain MB #5180 [2] = assay: minimum inhibitory concentration; assay type: cell-based, methicillin resistant Staphylococcus aureus; conditions: Staphylococcus aureus, imipenem (standard)
Experimental: as §1
All compounds below were tested against MRSA strain MB #5180. […]

Structure (SMILES) | MRSA Activity (MRSA strain MB #5180 [1]) | MIC (MRSA strain MB #5180 [2]) [µg/mL]
C[C@@H](O)[C@H]1C(=O)N2C(C(=O)O)=C3c4cccc(-c5ccccc5)c4CC[C@@H]3[C@H]12 | 1.9 | 
C[C@@H](O)[C@H]1C(=O)N2C(C(=O)O)=C3c4ccccc4CC[C@@H]3[C@H]12 | 1.3 | 
C[C@@H](O)[C@H]1C(=O)N2C(C(=O)O)=C3c4cc(-c5ccccc5)ccc4CC[C@@H]3[C@H]12 | 18.0 | 
C[C@@H](O)[C@H]1C(=O)N2C(C(=O)O)=C(SCCN=CN)C[C@H]12 [imipenem] |  | 46 (≈ 154 µM)
